The series concerns human HepG2 cell lines. The format is cell-based. The settings on record: human HepG2 cell line.

As for `CC(C)c1cc(-c2cn3c(-c4ccc5[nH]ncc5c4F)c(C4CC4)nc3cn2)ccc1F` [Example 79, 2-Cyclopropyl-3-(4-fluoro-1H-indazol-5-yl)-6-(4-fluoro-3-isopropyl-phenyl)-imidazo[1,2-a]pyrazine], the “Cytotox HepG2” value was found to be 15.7 µM. Take `CC(C)Oc1cc(-c2cn3c(-c4ccc5[nH]ncc5c4F)c(C(F)(F)F)nc3cn2)ccc1F` [Example 81, 3-(4-Fluoro-1H-indazol-5-yl)-6-(4-fluoro-3-isopropoxy-phenyl)-2-trifluoromethyl-imidazo[1,2-a]pyrazine]: the “Cytotox HepG2” value stood at 9.2 µM. Then `Fc1ccc(-c2cn3c(-c4ccc5[nH]ncc5c4F)c(C(F)(F)F)nc3cn2)cc1C1CCC1` [Example 82, 6-(3-Cyclobutyl-4-fluoro-phenyl)-3-(4-fluoro-1H-indazol-5-yl)-2-trifluoromethyl-imidazo[1,2-a]pyrazine], with 6.1 µM. Then `CC(C)c1cc(-c2cn3c(-c4ccc5[nH]ncc5c4Cl)c(C(F)(F)F)nc3cn2)ccc1F` [Example 83, 3-(4-Chloro-1H-indazol-5-yl)-6-(4-fluoro-3-isopropyl-phenyl)-2-trifluoromethyl-imidazo[1,2-a]pyrazine], with 6.6 µM; and `Fc1ccc(-c2cn3c(-c4ccc5[nH]ncc5c4F)c(C(F)(F)F)nc3cn2)cc1C1CC1` [Example 84, 6-(3-Cyclopropyl-4-fluoro-phenyl)-3-(4-fluoro-1H-indazol-5-yl)-2-trifluoromethyl-imidazo[1,2-a]pyrazine], with 10.5 µM; and `CC(C)Oc1cccc(-c2cn3c(-c4ccc5[nH]ncc5c4F)c(C(F)(F)F)nc3cn2)c1` [Example 86, 3-(4-Fluoro-1H-indazol-5-yl)-6-(3-isopropoxy-phenyl)-2-trifluoromethyl-imidazo[1,2-a]pyrazine], with 13.2 µM. Then `CC(C)c1cc(-c2cn3c(-c4ccc5[nH]ncc5c4F)c(C(F)(F)F)nc3cn2)ccn1` [Example 87, 3-(4-Fluoro-1H-indazol-5-yl)-6-(2-isopropyl-pyridin-4-yl)-2-trifluoromethyl-imidazo[1,2-a]pyrazine], with 9.5 µM. As to `Fc1c(-c2c(C(F)(F)F)nc3cnc(-c4ccnc(C(F)(F)F)c4)cn23)ccc2[nH]ncc12` [Example 88, 3-(4-Fluoro-1H-indazol-5-yl)-2-trifluoromethyl-6-(2-trifluoromethyl-pyridin-4-yl)-imidazo[1,2-a]pyrazine], the “Cytotox HepG2” value came out at 7.0 µM. Then `CC(C)c1nc2cnc(-c3cccc(C(F)(F)F)c3)nc2n1-c1ccc(O)cc1F` [Example 90, 3-fluoro-4-[8-(propan-2-yl)-2-[3-(trifluoromethyl)phenyl]-9H-purin-9-yl]phenol], with 9.3 µM.

(Values after US12060355B2, “Compounds for use in the treatment of fascioliasis” (Merck Patent GmbH, priority 2018, dated 2024).)
